Reference: patent US12528815B2, “5-amino-8-(4-pyridyl)-[1,2,4]triazolo[4,3-c]pyrimidin-3-one compounds for use against cancer” (Nxera Pharma UK Limited, priority 2020, dated 2026)

Key:
[1] = target: T1, human adenosine A2A receptor (Homo sapiens, UniProt P29274); assay: Inhibition binding assay, human adenosine A2A receptor membranes, [3H]ZM241385; conditions: 1 nM [3H]ZM241385, HEK293-hA2A membranes, 25° C., 1 h; IC50 converted to Ki with Cheng-Prusoff; read-out: A2A pKi (converted)
T1 construct: expressed in transfected cells; host or cells: HEK293 cells infected with BacMam
Summary of the method: (§1)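 Membranes from BacMam-infected HEK293 cells (0.2 μg A2A, 1.4 μg A1) incubated 1 h at 25° C with test compound and 1 nM [3H]ZM241385 (A2A; 50 mM Tris-HCl pH 7.4) or [3H]DPCPX (A1; plus 100 mM NaCl, 10 mM MgCl2). Nonspecific: 1 μM CGS15943 or DPCPX. Filtration, scintillation; IC50 converted to Ki via Cheng-Prusoff.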

[2] = target: T2, human adenosine A1 receptor (Homo sapiens, UniProt P30542); assay: Inhibition binding assay, human adenosine A1 receptor membranes, [3H]DPCPX; conditions: 1 nM [3H]DPCPX, 25° C., 1 h; IC50 converted to Ki with Cheng-Prusoff; read-out: A1 pKi (converted)
T2 construct: expressed in transfected cells; host or cells: HEK293 cells infected with BacMam (the same paragraph also labels the preparation CHO-hA1)
T2 sequence (P30542 1-326): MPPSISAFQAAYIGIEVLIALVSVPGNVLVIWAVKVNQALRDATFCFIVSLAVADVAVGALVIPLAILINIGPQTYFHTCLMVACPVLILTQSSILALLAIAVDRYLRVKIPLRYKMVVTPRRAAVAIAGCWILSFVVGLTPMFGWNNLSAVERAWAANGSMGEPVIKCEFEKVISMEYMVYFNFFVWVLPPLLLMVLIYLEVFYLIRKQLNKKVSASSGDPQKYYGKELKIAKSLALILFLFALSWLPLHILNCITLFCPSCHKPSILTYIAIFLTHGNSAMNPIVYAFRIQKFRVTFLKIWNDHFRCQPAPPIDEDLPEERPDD
Summary of the method: as §1

T1 sequence (P29274 whole entry): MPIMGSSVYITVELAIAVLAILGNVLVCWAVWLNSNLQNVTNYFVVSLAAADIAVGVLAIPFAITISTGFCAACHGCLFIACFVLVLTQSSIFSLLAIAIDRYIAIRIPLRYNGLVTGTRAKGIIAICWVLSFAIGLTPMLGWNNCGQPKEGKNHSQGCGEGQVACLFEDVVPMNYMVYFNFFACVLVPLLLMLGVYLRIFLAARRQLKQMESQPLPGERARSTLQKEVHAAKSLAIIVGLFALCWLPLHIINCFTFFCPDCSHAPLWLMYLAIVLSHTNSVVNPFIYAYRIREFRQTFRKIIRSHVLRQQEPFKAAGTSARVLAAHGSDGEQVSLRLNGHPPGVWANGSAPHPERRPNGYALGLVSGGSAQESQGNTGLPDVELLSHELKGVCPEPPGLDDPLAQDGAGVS

| SMILES | Ki [1] [nM] | Ki [2] [nM] |
| --- | --- | --- |
| Cc1cc(-c2c(-c3ccccc3)nc(N)n3c(=O)n(CCNC4CCCC(C(=O)NC5CC5)C4)nc23)cc(C)n1 (stereo not drawn) [Example 2-108, 3-[2-[5-amino-8-(2,6-dimethyl-4-pyridyl)-3-oxo-7-phenyl-[1,2,4]triazolo[4,3-c]pyrimidin-2-yl]ethylamino]-N-cyclopropyl-cyclohexanecarboxamide] | 200 | > 3980 |
| Cc1cc(-c2c(-c3ccccc3)nc(N)n3c(=O)n(Cc4ccc(Br)cn4)nc23)cc(CO)n1 [Example 1-53, 5-amino-2-[(5-bromo-2-pyridyl)methyl]-8-[2-(hydroxymethyl)-6-methyl-4-pyridyl]-7-phenyl-[1,2,4]triazolo[4,3-c]pyrimidin-3-one] | 2.51 | 501 |
| CCC(c1ccc(F)cn1)n1nc2c(-c3cc(C)nc(C)c3)c(-c3ccccc3)nc(N)n2c1=O (racemic) [Example 1-38, 5-amino-8-(2,6-dimethyl-4-pyridyl)-2-[1-(5-fluoro-2-pyridyl)propyl]-7-phenyl-[1,2,4]triazolo[4,3-c]pyrimidin-3-one] | 100 | 1000 |
| Cc1ccc(NC2CCN(CCn3nc4c(-c5cc(C)nc(C)c5)c(-c5ccccc5)nc(N)n4c3=O)CC2)nc1 [Example 1-97, 5-amino-8-(2,6-dimethyl-4-pyridyl)-2-[2-[4-[(5-methyl-2-pyridyl)amino]-1-piperidyl]ethyl]-7-phenyl-[1,2,4]triazolo[4,3-c]pyrimidin-3-one] | 63.1 | > 3980 |
| Cc1cc(-c2c(-c3ccccc3)nc(N)n3c(=O)n(Cc4ccccc4CC4CCNCC4)nc23)cc(C)n1 [Example 1-32, 5-amino-8-(2,6-dimethyl-4-pyridyl)-7-phenyl-2-[[2-(4-piperidylmethyl)phenyl]methyl]-[1,2,4]triazolo[4,3-c]pyrimidin-3-one] | 0.126 | 3.98 |
| Cc1cc(-c2c(-c3ccccc3)nc(N)n3c(=O)n(C(C)c4ccccn4)nc23)cc(C)n1 (stereo not drawn) [Example 1-20, 5-amino-8-(2,6-dimethyl-4-pyridyl)-7-phenyl-2-[1-(2-pyridyl)ethyl]-[1,2,4]triazolo[4,3-c]pyrimidin-3-one] | 12.6 | 316 |
| Cc1cc(-c2c(-c3ccccc3)nc(N)n3c(=O)n(CC4CS(=O)(=O)C4)nc23)cc(C)n1 [Example 2-90, 5-amino-8-(2,6-dimethyl-4-pyridyl)-2-[(1,1-dioxothietan-3-yl)methyl]-7-phenyl-[1,2,4]triazolo[4,3-c]pyrimidin-3-one] | 50.1 | 794 |
| Cc1cc(-c2c(-c3ccccc3)nc(N)n3c(=O)n(Cc4ccc(F)c(O)n4)nc23)cc(CO)n1 [Example 1-48, 5-amino-2-[(5-fluoro-6-hydroxy-2-pyridyl)methyl]-8-[2-(hydroxymethyl)-6-methyl-4-pyridyl]-7-phenyl-[1,2,4]triazolo[4,3-c]pyrimidin-3-one] | 10 | > 2510 |
| CCn1nc2c(-c3cc(C)nc(C)c3)c(-c3ccccc3)nc(N)n2c1=O [Example 2-3, 5-amino-8-(2,6-dimethyl-4-pyridyl)-2-ethyl-7-phenyl-[1,2,4]triazolo[4,3-c]pyrimidin-3-one] | 20 | 631 |
| Cc1cc(-c2c(-c3ccc(F)cc3)nc(N)n3c(=O)n(C)nc23)cc(Cl)n1 [Example 2-49, 5-amino-8-(2-chloro-6-methyl-4-pyridyl)-7-(4-fluorophenyl)-2-methyl-[1,2,4]triazolo[4,3-c]pyrimidin-3-one] | 39.8 | 501 |
| CCOc1ccccc1Cn1nc2c(-c3cc(C)nc(C)c3)c(-c3ccccc3)nc(N)n2c1=O [Example 1-25, 5-amino-8-(2,6-dimethyl-4-pyridyl)-2-[(2-ethoxyphenyl)methyl]-7-phenyl-[1,2,4]triazolo[4,3-c]pyrimidin-3-one] | 0.2 | 6.31 |
| Cc1cc(-c2c(-c3ccccc3)nc(N)n3c(=O)n(CC4CCCCO4)nc23)cc(CO)n1 (single isomer, unassigned) [Example 2-91-iso-2, 5-amino-8-[2-(hydroxymethyl)-6-methyl-4-pyridyl]-7-phenyl-2-(tetrahydropyran-2-ylmethyl)-[1,2,4]triazolo[4,3-c]pyrimidin-3-one] | 1.58 | 251 |
| Nc1nc(-c2ccccc2)c(-c2cc(Cl)nc(CO)c2)c2nn(Cc3ccc(F)cn3)c(=O)n12 [Example 1-69, 5-amino-8-[2-chloro-6-(hydroxymethyl)-4-pyridyl]-2-[(5-fluoro-2-pyridyl)methyl]-7-phenyl-[1,2,4]triazolo[4,3-c]pyrimidin-3-one] | 0.794 | 251 |
| Cc1cc(-c2c(-c3ccccc3)nc(N)n3c(=O)n(CC(=O)N(C)C4CC4)nc23)cc(C)n1 [Example 2-28, 2-[5-amino-8-(2,6-dimethyl-4-pyridyl)-3-oxo-7-phenyl-[1,2,4]triazolo[4,3-c]pyrimidin-2-yl]-N-cyclopropyl-N-methyl-acetamide] | 1.58 | 200 |
| Cc1cc(-c2c(-c3ccccc3)nc(N)n3c(=O)n(Cc4cccnn4)nc23)cc(CO)n1 [Example 1-56, 5-amino-8-[2-(hydroxymethyl)-6-methyl-4-pyridyl]-7-phenyl-2-(pyridazin-3-ylmethyl)-[1,2,4]triazolo[4,3-c]pyrimidin-3-one] | 3.98 | 200 |
| Cc1cc(N2CCC(NCCn3nc4c(-c5cc(C)nc(C)c5)c(-c5ccccc5)nc(N)n4c3=O)CC2)[nH]n1 [Example 1-95, 5-amino-8-(2,6-dimethyl-4-pyridyl)-2-[2-[[1-(3-methyl-1H-pyrazol-5-yl)-4-piperidyl]amino]ethyl]-7-phenyl-[1,2,4]triazolo[4,3-c]pyrimidin-3-one] | 316 | > 2000 |
| Cc1cc(-c2c(-c3ccccc3)nc(N)n3c(=O)n(Cc4ccc(F)cn4)nc23)cc(C(F)(F)F)n1 [Example 1-72, 5-amino-2-[(5-fluoro-2-pyridyl)methyl]-8-[2-methyl-6-(trifluoromethyl)-4-pyridyl]-7-phenyl-[1,2,4]triazolo[4,3-c]pyrimidin-3-one] | 2.51 | 126 |
| Cc1cc(-c2c(-c3ccccc3)nc(N)n3c(=O)n(CC4CCN(C(=O)OC(C)(C)C)CC4)nc23)cc(C)n1 [Example 2-67, tert-butyl 4-[[5-amino-8-(2,6-dimethyl-4-pyridyl)-3-oxo-7-phenyl-[1,2,4]triazolo[4,3-c]pyrimidin-2-yl]methyl]piperidine-1-carboxylate] | 6.31 | 1000 |
| Cc1cc(-c2c(-c3ccccc3)nc(N)n3c(=O)n(Cc4ncc(F)cc4Cl)nc23)cc(C)n1 [Example 1-39, 5-amino-2-[(3-chloro-5-fluoro-2-pyridyl)methyl]-8-(2,6-dimethyl-4-pyridyl)-7-phenyl-[1,2,4]triazolo[4,3-c]pyrimidin-3-one] | 0.631 | 63.1 |
| Cc1cc(-c2c(-c3ccc(F)cc3F)nc(N)n3c(=O)n(CCC(F)(F)F)nc23)cc(C)n1 [Example 2-34, 5-amino-7-(2,4-difluorophenyl)-8-(2,6-dimethyl-4-pyridyl)-2-(3,3,3-trifluoropropyl)-[1,2,4]triazolo[4,3-c]pyrimidin-3-one] | 15.8 | > 3980 |
| Cc1cc(-c2c(-c3ccccc3)nc(N)n3c(=O)n(Cc4ccc(F)cc4C)nc23)cc(C)n1 [Example 1-18, 5-amino-8-(2,6-dimethyl-4-pyridyl)-2-[(4-fluoro-2-methyl-phenyl)methyl]-7-phenyl-[1,2,4]triazolo[4,3-c]pyrimidin-3-one] | 0.0794 | 10 |
